Test results reported in patent US9790178B2, “Pyrrolidinyl urea, thiourea, guanidine and cyanoguanidine compounds as TrkA kinase inhibitors” (Array BioPharma Inc., priority 2012, dated 2017).

Columns and labels:
Experiment in all cases: KinaseProfiler off-target kinase profiling
Assay type in all cases: biochemical
Details in all cases: 10 μM, ATP near Km
DCAMKL2 = target: T1, DCAMKL2 (Homo sapiens, UniProt Q8N568)
T1 construct: purchased Millipore, Inc. (KinaseProfiler service)
Experimental: (§1) A representative compound of the invention (Example 20) was tested for off-target kinase activity at a concentration of 10 μM by Millipore, Inc. in their KinaseProfiler™ service against all the kinases available in their full kinase panel. The compound was run in duplicate at a concentration of ATP near the Km for each individual kinase according to Millipore's specifications. The results are shown in Table B. Data are reported as percent of control (POC) and are the average of the two replicates.

PKCiota = target: T2, PKCiota (Homo sapiens, UniProt P41743)
T2 construct: purchased Millipore (KinaseProfiler service)
Experimental: as §1

mTOR/FKBP12 = target: T3, mTOR/FKBP12 (Homo sapiens, UniProt P42345)
T3 construct: purchased Millipore, Inc. (KinaseProfiler service)
Experimental: as §1

Rsk4 = target: T4, Rsk4 (Homo sapiens, UniProt Q9UK32)
T4 construct: purchased Millipore, Inc. (KinaseProfiler service)
Experimental: as §1

Tie2 = target: T5, Tie2 (Homo sapiens, UniProt Q02763)
T5 construct: purchased Millipore, Inc. (KinaseProfiler service)
Experimental: as §1

MARK1 = target: T6, MARK1 (Homo sapiens, UniProt Q9P0L2)
T6 construct: purchased Millipore, Inc. (KinaseProfiler service)
Experimental: as §1

TAO1 = target: T7, TAO1 (Homo sapiens, UniProt Q7L7X3)
T7 construct: purchased Millipore, Inc. (KinaseProfiler service)
Experimental: as §1

ALK = target: T8, ALK (Homo sapiens, UniProt Q9UM73)
T8 construct: purchased Millipore, Inc. (KinaseProfiler service)
Experimental: as §1

Fer = target: T9, Fer (Homo sapiens, UniProt P16591)
T9 construct: purchased Millipore, Inc. (KinaseProfiler service)
Experimental: as §1

MST3 = target: T10, MST3 (Homo sapiens, UniProt Q9Y6E0)
T10 construct: purchased Millipore, Inc. (KinaseProfiler service)
Experimental: as §1

IRR = target: T11, IRR (Homo sapiens, UniProt P14616)
T11 construct: purchased Millipore, Inc. (KinaseProfiler service)
Experimental: as §1

TAO3 = target: T12, TAO3 (Homo sapiens, UniProt Q9H2K8)
T12 construct: purchased Millipore, Inc. (KinaseProfiler service)
Experimental: as §1

CLK3 = target: T13, CLK3 (Homo sapiens, UniProt P49761)
T13 construct: purchased Millipore, Inc. (KinaseProfiler service)
Experimental: as §1

EphA2 = target: T14, EphA2 (Homo sapiens, UniProt P29317)
T14 construct: purchased Millipore, Inc. (KinaseProfiler service)
Experimental: as §1

TEC Activated = target: T15, TEC Activated (Homo sapiens, UniProt P42680)
T15 construct: purchased Millipore, Inc. (KinaseProfiler service)
Experimental: as §1

LOK = target: T16, LOK (Homo sapiens, UniProt O94804)
T16 construct: purchased Millipore, Inc. (KinaseProfiler service)
Experimental: as §1

Ron = target: T17, Ron (Homo sapiens, UniProt Q04912)
T17 construct: purchased Millipore (KinaseProfiler service)
Experimental: as §1

p70S6K = target: T18, p70S6K (Homo sapiens, UniProt P23443)
T18 construct: purchased Millipore, Inc. (KinaseProfiler service)
Experimental: as §1

Fgr = target: T19, Fgr (Homo sapiens, UniProt P09769)
T19 construct: purchased Millipore, Inc. (KinaseProfiler service)
Experimental: as §1

HIPK2 = target: T20, HIPK2 (Homo sapiens, UniProt Q9H2X6)
T20 construct: purchased Millipore, Inc. (KinaseProfiler service)
Experimental: as §1

EphA7 = target: T21, EphA7 (Homo sapiens, UniProt Q15375)
T21 construct: purchased Millipore, Inc. (KinaseProfiler service)
Experimental: as §1

PKCzeta = target: T22, PKCzeta (Homo sapiens, UniProt Q05513)
T22 construct: purchased Millipore (KinaseProfiler service)
Experimental: as §1

Hck = target: T23, Hck (Homo sapiens, UniProt P08631)
T23 construct: purchased Millipore, Inc. (KinaseProfiler service)
Experimental: as §1

BrSK1 = target: T24, BrSK1 (Homo sapiens, UniProt Q8TDC3)
T24 construct: purchased Millipore, Inc. (KinaseProfiler service)
Experimental: as §1

JAK3 = target: T25, JAK3 (Homo sapiens, UniProt P52333)
T25 construct: purchased Millipore, Inc. (KinaseProfiler service)
Experimental: as §1

PKCbetaII = target: T26, PKCbetaII (Homo sapiens, UniProt P05771)
T26 construct: purchased Millipore, Inc. (KinaseProfiler service)
Experimental: as §1

CK1gamma1 = target: T27, CK1gamma1 (Homo sapiens, UniProt Q9HCP0)
T27 construct: purchased Millipore, Inc. (KinaseProfiler service)
Experimental: as §1

TNK2 = target: T28, TNK2 (Homo sapiens, UniProt Q07912)
T28 construct: purchased Millipore, Inc. (KinaseProfiler service)
Experimental: as §1

MAPKAP-K3 = target: T29, MAPKAP-K3 (Homo sapiens, UniProt Q16644)
T29 construct: purchased Millipore, Inc. (KinaseProfiler service)
Experimental: as §1

CDK7/cyclinH/MAT1 = target: T30, CDK7/cyclinH/MAT1 (Homo sapiens, UniProt P50613)
T30 construct: purchased Millipore, Inc. (KinaseProfiler service)
Experimental: as §1

Mer = target: T31, Mer (Homo sapiens, UniProt Q12866)
T31 construct: purchased Millipore, Inc. (KinaseProfiler service)
Experimental: as §1

c-RAF = test system: c-RAF
Experimental: as §1

Abl2 = target: T32, Abl2 (Homo sapiens, UniProt P42684)
T32 construct: purchased Millipore, Inc. (KinaseProfiler service)
Experimental: as §1

Plk2 = target: T33, Plk2 (Homo sapiens, UniProt Q9NYY3)
T33 construct: purchased Millipore (KinaseProfiler service)
Experimental: as §1

NLK = target: T34, NLK (Homo sapiens, UniProt Q9UBE8)
T34 construct: purchased Millipore, Inc. (KinaseProfiler service)
Experimental: as §1

Pim-1 = target: T35, Pim-1 (Homo sapiens, UniProt P11309)
T35 construct: purchased Millipore, Inc. (KinaseProfiler service)
Experimental: as §1

PAK2 = target: T36, PAK2 (Homo sapiens, UniProt Q13177)
T36 construct: purchased Millipore, Inc. (KinaseProfiler service)
Experimental: as §1

Lck = target: T37, Lck (Homo sapiens, UniProt P06239)
T37 construct: purchased Millipore, Inc. (KinaseProfiler service)
Experimental: as §1

PAK5 = target: T38, PAK5 (Homo sapiens, UniProt Q9P286)
T38 construct: purchased Millipore, Inc. (KinaseProfiler service)
Experimental: as §1

FGFR3 = target: T39, FGFR3 (Homo sapiens, UniProt P22607)
T39 construct: purchased Millipore, Inc. (KinaseProfiler service)
Experimental: as §1

PKCalpha = target: T40, PKCalpha (Homo sapiens, UniProt P17252)
T40 construct: purchased Millipore, Inc. (KinaseProfiler service)
Experimental: as §1

T1 sequence (Q8N568 whole entry): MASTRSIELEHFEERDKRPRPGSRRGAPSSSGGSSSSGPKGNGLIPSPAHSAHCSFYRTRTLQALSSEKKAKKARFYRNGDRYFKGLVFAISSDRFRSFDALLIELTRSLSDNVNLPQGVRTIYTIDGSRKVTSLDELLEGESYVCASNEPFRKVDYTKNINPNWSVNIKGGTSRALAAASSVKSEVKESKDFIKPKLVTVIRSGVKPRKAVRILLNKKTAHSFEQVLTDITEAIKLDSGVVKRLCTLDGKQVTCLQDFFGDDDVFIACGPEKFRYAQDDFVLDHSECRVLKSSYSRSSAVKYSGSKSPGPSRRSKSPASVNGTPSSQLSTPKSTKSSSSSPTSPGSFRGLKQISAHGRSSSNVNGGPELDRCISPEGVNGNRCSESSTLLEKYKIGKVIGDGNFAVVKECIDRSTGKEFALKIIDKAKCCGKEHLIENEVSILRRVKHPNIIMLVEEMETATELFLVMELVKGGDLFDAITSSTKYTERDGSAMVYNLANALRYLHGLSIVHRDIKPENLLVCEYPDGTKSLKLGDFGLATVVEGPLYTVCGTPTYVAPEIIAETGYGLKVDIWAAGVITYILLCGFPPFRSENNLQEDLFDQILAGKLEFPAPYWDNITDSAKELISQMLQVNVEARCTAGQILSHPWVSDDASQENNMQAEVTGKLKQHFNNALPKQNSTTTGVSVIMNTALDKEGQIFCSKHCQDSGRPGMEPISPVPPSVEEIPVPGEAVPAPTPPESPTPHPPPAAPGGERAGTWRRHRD
T12 sequence (Q9H2K8 whole entry): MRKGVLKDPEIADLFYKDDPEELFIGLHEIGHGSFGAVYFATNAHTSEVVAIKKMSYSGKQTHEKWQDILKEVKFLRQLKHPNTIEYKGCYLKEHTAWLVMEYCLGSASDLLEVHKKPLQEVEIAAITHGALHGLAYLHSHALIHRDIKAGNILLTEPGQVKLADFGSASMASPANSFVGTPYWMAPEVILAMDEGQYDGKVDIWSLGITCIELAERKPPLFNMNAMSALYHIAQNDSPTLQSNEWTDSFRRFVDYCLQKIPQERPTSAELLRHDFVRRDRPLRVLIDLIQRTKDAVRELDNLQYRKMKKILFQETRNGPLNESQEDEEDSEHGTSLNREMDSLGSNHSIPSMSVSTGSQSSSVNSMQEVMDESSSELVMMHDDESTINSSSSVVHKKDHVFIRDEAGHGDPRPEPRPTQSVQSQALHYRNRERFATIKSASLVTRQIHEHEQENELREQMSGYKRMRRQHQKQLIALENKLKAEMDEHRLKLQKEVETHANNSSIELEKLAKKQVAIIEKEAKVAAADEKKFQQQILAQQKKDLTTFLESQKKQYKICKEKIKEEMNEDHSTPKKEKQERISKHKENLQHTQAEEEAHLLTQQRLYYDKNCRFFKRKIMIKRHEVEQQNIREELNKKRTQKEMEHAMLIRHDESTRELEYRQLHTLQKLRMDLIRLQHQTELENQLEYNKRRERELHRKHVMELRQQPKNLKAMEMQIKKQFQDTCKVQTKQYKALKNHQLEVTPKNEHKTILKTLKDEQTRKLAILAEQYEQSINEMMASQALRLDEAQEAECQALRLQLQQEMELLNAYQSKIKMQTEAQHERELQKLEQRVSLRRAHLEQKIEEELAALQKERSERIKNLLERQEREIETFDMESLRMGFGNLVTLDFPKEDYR
T8 sequence (Q9UM73 19-1620): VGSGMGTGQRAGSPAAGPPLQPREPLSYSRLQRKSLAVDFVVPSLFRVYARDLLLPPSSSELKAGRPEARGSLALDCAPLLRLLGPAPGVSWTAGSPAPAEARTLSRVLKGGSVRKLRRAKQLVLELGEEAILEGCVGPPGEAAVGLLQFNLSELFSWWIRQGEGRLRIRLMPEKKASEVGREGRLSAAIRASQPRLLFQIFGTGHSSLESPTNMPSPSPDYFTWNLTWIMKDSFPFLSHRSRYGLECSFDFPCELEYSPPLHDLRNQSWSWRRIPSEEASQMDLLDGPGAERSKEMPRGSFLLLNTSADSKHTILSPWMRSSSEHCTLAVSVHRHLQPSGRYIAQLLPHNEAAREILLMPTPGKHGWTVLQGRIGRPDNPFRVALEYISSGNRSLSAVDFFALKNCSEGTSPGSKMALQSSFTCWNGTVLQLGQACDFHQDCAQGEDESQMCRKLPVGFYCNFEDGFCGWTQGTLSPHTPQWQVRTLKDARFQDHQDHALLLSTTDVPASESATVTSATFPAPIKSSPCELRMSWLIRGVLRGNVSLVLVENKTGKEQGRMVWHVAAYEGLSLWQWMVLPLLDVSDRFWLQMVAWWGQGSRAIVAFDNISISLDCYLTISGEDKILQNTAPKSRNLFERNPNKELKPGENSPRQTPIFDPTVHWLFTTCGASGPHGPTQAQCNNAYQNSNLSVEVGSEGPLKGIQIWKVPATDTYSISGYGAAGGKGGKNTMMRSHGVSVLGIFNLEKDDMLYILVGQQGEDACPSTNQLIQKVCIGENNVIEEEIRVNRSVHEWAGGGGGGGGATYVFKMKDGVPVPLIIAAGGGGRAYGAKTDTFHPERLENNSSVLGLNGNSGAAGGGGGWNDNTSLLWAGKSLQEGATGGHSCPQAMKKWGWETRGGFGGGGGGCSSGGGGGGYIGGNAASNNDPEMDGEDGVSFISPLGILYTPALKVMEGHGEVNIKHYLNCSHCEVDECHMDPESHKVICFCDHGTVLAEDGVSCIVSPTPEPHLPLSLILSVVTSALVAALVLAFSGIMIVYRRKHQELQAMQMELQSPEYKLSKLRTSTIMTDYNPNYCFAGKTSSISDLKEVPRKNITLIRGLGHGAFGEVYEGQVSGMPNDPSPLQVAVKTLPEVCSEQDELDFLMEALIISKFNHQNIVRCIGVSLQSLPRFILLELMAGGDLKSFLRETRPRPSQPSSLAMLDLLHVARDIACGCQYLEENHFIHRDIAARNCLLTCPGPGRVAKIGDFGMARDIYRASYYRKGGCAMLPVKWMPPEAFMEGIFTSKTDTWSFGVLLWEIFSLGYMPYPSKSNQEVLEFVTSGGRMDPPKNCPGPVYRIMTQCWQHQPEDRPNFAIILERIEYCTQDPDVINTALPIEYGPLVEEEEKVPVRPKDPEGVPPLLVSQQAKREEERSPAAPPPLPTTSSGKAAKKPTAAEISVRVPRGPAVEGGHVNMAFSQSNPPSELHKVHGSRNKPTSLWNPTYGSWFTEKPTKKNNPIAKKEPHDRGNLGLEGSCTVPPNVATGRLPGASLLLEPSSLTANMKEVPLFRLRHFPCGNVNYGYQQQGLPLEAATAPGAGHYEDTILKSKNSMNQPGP
T27 sequence (Q9HCP0 whole entry): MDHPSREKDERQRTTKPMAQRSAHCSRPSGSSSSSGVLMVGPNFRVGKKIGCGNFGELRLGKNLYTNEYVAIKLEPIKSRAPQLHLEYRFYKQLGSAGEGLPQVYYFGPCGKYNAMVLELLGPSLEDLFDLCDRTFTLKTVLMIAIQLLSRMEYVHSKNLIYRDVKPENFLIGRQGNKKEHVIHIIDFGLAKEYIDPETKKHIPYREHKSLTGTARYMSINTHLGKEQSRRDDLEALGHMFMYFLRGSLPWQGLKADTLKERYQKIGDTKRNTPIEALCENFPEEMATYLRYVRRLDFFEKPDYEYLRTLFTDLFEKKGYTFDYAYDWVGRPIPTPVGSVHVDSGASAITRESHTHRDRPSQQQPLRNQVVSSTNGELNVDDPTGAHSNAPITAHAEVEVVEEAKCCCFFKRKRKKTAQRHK
T36 sequence (Q13177 whole entry): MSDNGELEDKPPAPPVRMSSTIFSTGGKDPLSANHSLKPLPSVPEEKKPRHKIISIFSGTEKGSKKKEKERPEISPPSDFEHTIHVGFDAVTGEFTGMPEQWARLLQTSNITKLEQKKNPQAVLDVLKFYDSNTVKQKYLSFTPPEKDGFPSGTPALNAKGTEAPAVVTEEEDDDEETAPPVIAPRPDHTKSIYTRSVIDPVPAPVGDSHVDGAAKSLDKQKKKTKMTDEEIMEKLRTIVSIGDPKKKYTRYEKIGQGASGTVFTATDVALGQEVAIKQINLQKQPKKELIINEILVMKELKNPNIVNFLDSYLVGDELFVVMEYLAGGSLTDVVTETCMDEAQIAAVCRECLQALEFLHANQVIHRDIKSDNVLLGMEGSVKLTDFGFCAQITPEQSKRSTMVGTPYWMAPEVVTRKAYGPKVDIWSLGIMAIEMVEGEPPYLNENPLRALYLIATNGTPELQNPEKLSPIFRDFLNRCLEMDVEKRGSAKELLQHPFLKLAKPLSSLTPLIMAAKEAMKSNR

SMILES: COCCN1C[C@@H](NC(=O)Nc2c(-c3ccccc3)nc3c(C)nccn23)[C@H](c2ccc(F)c(F)c2)C1 [Example 20, 1-((3S,4R)-4-(3,4-difluorophenyl)-1-(2-methoxyethyl)pyrrolidin-3-yl)-3-(8-methyl-2-phenylimidazo[1,2-a]pyrazin-3-yl)urea]
- Avg. POC (DCAMKL2): 126.5 POC
- Avg. POC (PKCiota): 101.5 POC
- Avg. POC (mTOR/FKBP12): 110.5 POC
- Avg. POC (Rsk4): 147 POC
- Avg. POC (Tie2): 119 POC
- Avg. POC (MARK1): 103.5 POC
- Avg. POC (TAO1): 106 POC
- Avg. POC (ALK): 114 POC
- Avg. POC (Fer): 91.5 POC
- Avg. POC (MST3): 104 POC
- Avg. POC (IRR): 96 POC
- Avg. POC (TAO3): 103 POC
- Avg. POC (CLK3): 107 POC
- Avg. POC (EphA2): 107.5 POC
- Avg. POC (TEC Activated): 107 POC
- Avg. POC (LOK): 108.5 POC
- Avg. POC (Ron): 100 POC
- Avg. POC (p70S6K): 112 POC
- Avg. POC (Fgr): 121 POC
- Avg. POC (HIPK2): 102 POC
- Avg. POC (EphA7): 104.5 POC
- Avg. POC (PKCzeta): 104 POC
- Avg. POC (Hck): 110 POC
- Avg. POC (BrSK1): 112.5 POC
- Avg. POC (JAK3): 115 POC
- Avg. POC (PKCbetaII): 106 POC
- Avg. POC (CK1gamma1): 109 POC
- Avg. POC (TNK2): 94.5 POC
- Avg. POC (MAPKAP-K3): 105 POC
- Avg. POC (CDK7/cyclinH/MAT1): 101.5 POC
- Avg. POC (Mer): 116.5 POC
- Avg. POC (c-RAF): 118.5 POC
- Avg. POC (Abl2): 112.5 POC
- Avg. POC (Plk2): 106 POC
- Avg. POC (NLK): 99 POC
- Avg. POC (Pim-1): 105 POC
- Avg. POC (PAK2): 100.5 POC
- Avg. POC (Lck): 135.5 POC
- Avg. POC (PAK5): 105.5 POC
- Avg. POC (FGFR3): 101 POC
- Avg. POC (PKCalpha): 103.5 POC
